The values that follow come from patent US12458538B2, “Functional wound healing dressings” (Ambient Biosciences, Inc., priority 2018, dated 2025).

“Also recorded” adds a separate entry of the source.

Test [1] concerns C57/BL6J mouse keratinocytes. Description: Transwell migration assay. Type of test: cell-based. How it is done: (§1) Two established cell culture models of transwell migration and a scratch wound healing model with freshly isolated C57/BL6J mouse keratinocytes were used. First, the keratinocyte cultures were established by enzymatic separation of keratinocytes from the epidermal layer of mouse skin using a dispase (for isolating epidermal later of skin) and trypsin (for isolating keratinocytes from the epidermis) under gentle agitation. The collected cells were grown in SFM-keratinocyte medium (Life Technologies).
To assess the ability of keratinocytes to migrate under the influence of VEGF, cells were trypsinized, collected by centrifugation and added to the upper chamber of transwell inserts while the No VEGF control or VEGF or VEGF+VEGF inhibitor were added to serum free medium placed in the lower chamber. The cells were allowed to migrate under normal growth conditions. At the end of 24 h, the cells that migrated under the influence of vehicle control or VEGF in lower chamber were counted visually and expressed as percent cell migration.

The subject of test [2] is C57/BL6J mouse keratinocytes. Description: Scratch wound healing assay. Type of test: cell-based. On the procedure: as §1
To assess the ability of keratinocytes to migrate and heal wound gaps, scratch wounds of uniform dimensions were created across keratinocyte monolayers and the cultures were left for healing in the presence or absence of VEGF or VEGF inhibitor.

For test [3], the system named is TNFα, COL1A1, DSTN, TGFβ, IL-6 and COL3A1 expression in dermal fibroblasts. The test can be described thus: LPS-induced scar-forming gene expression assay of dermal fibroblasts (qPCR). Type of test: cell-based. To be noted: LPS 500 ng/ml 3 days; VEGF 10 ng/ml; + control ideal storage, others exposed at 55° C. for 15 days. On the procedure: Dermal fibroblasts were treated with lipopolysaccharide LPS (500 ng/ml) or vehicle PBS (No LPS control) for 3 days in the presence of vitrified VEGF (10 ng/ml) that was tested for stability against exposure to 55° C. from days 1-15.
LPS-treated cells exposed to VEGF (10 ng/ml) that underwent thermo-destabilization in the absence of vitrification served as negative control and the cells treated with VEGF that was subjected to neither vitrification nor destabilization served as positive control.
LPS-induced scar-forming gene expression profiles of dermal fibroblasts namely TNFα, COL1A1, DSTN, TGFβ, IL-6 and COL3A1 were measured by quantitative real-time PCR (qPCR), normalized to the expression of β-actin and expressed relative to the levels measured in No LPS control.
A general note: In qPCR the cycle at which signal appears reflects the starting amount.

Test [4] in a line: Activity of vitrified insulin after reconstitution. To be noted: reconstitution by contact with water or a body fluid.

Regarding “vascular endothelial growth factor [VEGF]”, the “migration of keratinocytes, transwell” value in test [1] (24 h, serum free medium in lower chamber) is reported as “stimulates migration of keratinocytes”. Besides, the “quantification of cell numbers in the transwell migration assay” value in test [1] (n=3) is “dramatic induction of keratinocyte migration”. Further, the “number of cells that migrated into the scratch wound area” value in test [2] (n=3) is reported as “dramatic induction of keratinocyte migration”. Moreover, the “keratinocyte scratch wound healing” value in test [2] (scratch wounds on confluent keratinocyte monolayers) is listed as “promote a dynamic healing in the scratch wound area; also recorded: stimulates migration of keratinocytes”. In test [3], the “LPS-induced scar-forming gene expression” value is recorded as “strong suppressive effect on scar forming genes”.

As for “vitrified insulin: insulin vitrified by the processes described, e.g. electrospun with pullulan and trehalose”, in test [4], the activity after reconstitution result is on record as “indistinguishable from fresh insulin”.
